What all share (type): biochemical
For experiment [1], the target named is T1, nlGSTE (Nilaparvata lugens, UniProt J9Q4G5).
T1 sequence (J9Q4G5 1-217): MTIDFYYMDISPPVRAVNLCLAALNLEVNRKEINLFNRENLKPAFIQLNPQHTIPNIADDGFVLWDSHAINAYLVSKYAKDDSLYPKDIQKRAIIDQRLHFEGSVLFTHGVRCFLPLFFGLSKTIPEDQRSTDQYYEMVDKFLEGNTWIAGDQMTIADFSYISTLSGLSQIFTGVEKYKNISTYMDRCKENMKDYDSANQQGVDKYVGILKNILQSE
Description: inhibition of CDNB conjugation, spectrophotometry. To be noted: substrates CDNB and GSH; several inhibitor concentrations.

Experiment [2] addresses T1, nlGSTE. The experiment is described as follows: inhibition of CDNB conjugation, spectrophotometry. Particulars: read-out: % remaining activity at 0.1 mM.
Experiment [3] concerns the target T2, nlGSTE (Nilaparvata lugens, UniProt J9Q4G5, R112A).
T2 sequence (J9Q4G5 1-217 R112A): T1 sequence (J9Q4G5 1-217)
Description: spectrophotometry at […] nm, double-reciprocal plot. To be noted: read-out: R112A; 5 mM GSH, 20 mM Tris-HCl pH 8.0, 30 °C.

Experiment [4] deals with T3, nlGSTE (Nilaparvata lugens, UniProt J9Q4G5, F107A).
T3 sequence (J9Q4G5 1-217 F107A): T1 sequence (J9Q4G5 1-217)
Description: spectrophotometry at […] nm, double-reciprocal plot. Particulars: read-out: F107A; 5 mM GSH, 20 mM Tris-HCl pH 8.0, 30 °C.

In experiment [5] the target is T4, nlGSTE (Nilaparvata lugens, UniProt J9Q4G5, F118L).
T4 sequence (J9Q4G5 1-217 F118L): T1 sequence (J9Q4G5 1-217)
The experiment is described as follows: spectrophotometry at […] nm, double-reciprocal plot. Particulars: read-out: F118L; 5 mM GSH, 20 mM Tris-HCl pH 8.0, 30 °C.

In experiment [6] the target is T1, nlGSTE. Description: spectrophotometry at […] nm, double-reciprocal plot. To be noted: read-out: WT; 5 mM GSH, 20 mM Tris-HCl pH 8.0, 30 °C.
Experiment [7] addresses T5, nlGSTE (Nilaparvata lugens, UniProt J9Q4G5, F119A).
T5 sequence (J9Q4G5 1-217 F119A): T1 sequence (J9Q4G5 1-217)
The experiment is described as follows: spectrophotometry at […] nm, double-reciprocal plot. Particulars: read-out: F119A; 5 mM GSH, 20 mM Tris-HCl pH 8.0, 30 °C.

Broadly, the remaining activity is the activity still measured, relative to the control.

For the molecule `CCOP(=S)(OCC)Oc1cc(C)nc(C(C)C)n1` [diazinon], the remaining activity entry in experiment [1] was “nlGSTE activity was affected by permethrin, bendiocarb, diazinon, and chlorfenapyr”. As for `CCOCn1c(-c2ccc(Cl)cc2)c(C#N)c(Br)c1C(F)(F)F` [chlorfenapyr], the remaining activity at 100 µM in experiment [2] was 84%. With `CC1(C)C(C=C(Cl)Cl)C1C(=O)OCc1cccc(Oc2ccccc2)c1` (stereo not drawn) [permethrin], in experiment [1], the remaining activity result is “nlGSTE activity was affected by permethrin, bendiocarb, diazinon, and chlorfenapyr”.

`CNC(=O)Oc1cccc2c1OC(C)(C)O2` [bendiocarb]: the remaining activity at 100 µM in experiment [2] is 36%. Take `O=[N+]([O-])c1ccc(Cl)c([N+](=O)[O-])c1` [CDNB, 1-chloro-2,4-dinitrobenzene]: the Km in experiment [3] came out at 8.7 ± 0.666 mM; in experiment [4], 3.1 ± 0.367 mM; in experiment [5], 4.2 ± 0.865 mM; in experiment [6], 2.1 ± 0.165 mM; in experiment [7], 5 ± 0.575 mM.

The record behind these values is publication PMC6790247 (Journal of Insect Science, 2019).
